One series deals with T1, TRα (Homo sapiens, UniProt P10827).
T1 construct: The firefly luciferase reporter under the Gal4 UAS is a separate reporter gene
T1 sequence (P10827 163-410 isoform P10827-2 limits assumed): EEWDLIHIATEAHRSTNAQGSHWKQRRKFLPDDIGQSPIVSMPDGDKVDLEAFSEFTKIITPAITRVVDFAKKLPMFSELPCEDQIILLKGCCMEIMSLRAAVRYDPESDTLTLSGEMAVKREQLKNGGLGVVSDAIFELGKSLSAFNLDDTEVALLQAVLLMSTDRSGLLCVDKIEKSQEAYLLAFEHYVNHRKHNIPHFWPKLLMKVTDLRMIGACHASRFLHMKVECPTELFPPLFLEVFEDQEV
The experiment in a line: Thyroid-hormone reporter-gene assay (Gal4-TR hybrid, luciferase), TRα. The settings on record: HEK293-derived reporter cells, 24 hr incubation. The class given is cell-based. The protocol: (§1) Reporter cells used in the assays express a TR-receptor hybrid (either TRα or […]) in which the native N-terminal DNA binding domain (DBD) has been replaced with that of the yeast Gal4 DBD. The reporter gene, firefly luciferase, is functionally linked to the Gal4 upstream activation sequence (UAS). Both cell lines were derived from human embryonic kidney (HEK293).
(§2) Step 1: A suspension of reporter cells was prepared in cell recovery medium containing 10% charcoal-stripped FBS, and dispensed into assay plates. The plates were pre-incubated for 6 hours in a cell culture incubator (37° C./5% CO2/85% humidity).
(§3) These Intermediate Stocks were subsequently diluted directly into compound screening medium containing 10% charcoal-stripped FBS to generate “2×-concentration” treatment media (containing 0.2, 0.4 or 0.8% DMSO).
(§4) Step 3: At the end of the pre-incubation period, culture media were discarded from the assay plates, and all wells received 100 μl of compound screening medium. 100 μl of each of the previously prepared “2×-concentration” treatment media were dispensed into duplicate assay wells, thereby achieving the desired final treatment concentrations. The final concentration of DMSO in all assay wells was 0.1, 0.2 or 0.4%. Assay plates were incubated for 24 hr in a cell culture incubator (37° C./5% CO2/85% humidity).
(§5) Step 4: At the 24 h assay endpoint, treatment media were discarded and 100 μl/well of luciferase detection reagent was added. Relative luminometer units (RLUs) were quantified from each assay well.

For another series, the target named is T2, TRβ (Homo sapiens, UniProt P10828).
T2 construct: expressed in transfected cells; host or cells: HEK293-derived reporter cells
T2 sequence (P10828 217-461 limits assumed): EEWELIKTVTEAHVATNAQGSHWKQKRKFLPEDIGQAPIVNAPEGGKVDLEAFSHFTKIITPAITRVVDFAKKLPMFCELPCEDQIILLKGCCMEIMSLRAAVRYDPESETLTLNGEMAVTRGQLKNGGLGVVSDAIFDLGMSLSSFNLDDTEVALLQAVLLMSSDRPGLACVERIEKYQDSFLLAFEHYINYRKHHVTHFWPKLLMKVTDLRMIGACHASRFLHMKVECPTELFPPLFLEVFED
As to the kind of experiment: Thyroid-hormone reporter-gene assay (Gal4-TR hybrid, luciferase), TRβ. In kind it is cell-based. The settings on record: for T3-benchmarked selectivity index (T3-SI): EC50 (TRα)*T3-EC50 (TRβ)/EC50 (TRβ)*T3-EC50 (TRα), T3 in the same experiment; for EC50: HEK293-derived reporter cells, 24 hr incubation. On the procedure:
as §1, §2, §3, §4, §5

Series [1] in a line: Tissue distribution study, brain concentration of parent acid after prodrug dosing. In kind it is in vivo, male C57Bl/6 mice. Conditions: 1 hr after SC dosing (0.1 mg/kg) of the prodrug; parent acid measured; compared to dichloro-prodrug and Sob-AM2 (FIG. 2). The protocol:
For tissue concentration studies in male C57Bl/6 mice, test compounds are formulated as NMP/solutol/PBS solution, at a concentration of 0.05 mg/mL and dosed at 2 mL/kg with the targeted dose of 0.100 mg/kg via SC injection or oral dosing. […] Tissue homogenates and plasma concentrations of test compounds are determined using LC-MS/MS with lower limits of quantitation of 0.0200 ng/mL or 0.100 ng/g. The pharmacokinetic parameters are determined by non-compartmental methods using WinNonlin.
FIG. 2 depicts brain levels of Compound 2 recorded 1 hr after SC dosing (0.1 mg/kg) of the corresponding prodrug Compound 3.

This is an account of results in patent publication US11827596B2, “Thyromimetics” (Autobahn Therapeutics, Inc., priority 2018, dated 2023).

The EC50 is the midpoint of the concentration-response curve. Low readings indicate an effect from little substance, high ones a need for much substance.

Structures are written as SMILES. Some results are limits rather than exact numbers.

Take `Cc1cc(OCC(=O)O)cc(Cl)c1Cc1ccc(O)c(C(C)C)c1` [Compound 2, 2-(3-chloro-4-(4-hydroxy-3-isopropylbenzyl)-5-methylphenoxy)acetic acid]: the EC50 on TRα was in the range of 100 to 1000 nM. For the same molecule, at TRβ, the “T3-benchmarked selectivity index (T3-SI)” value is “++ (3×<T3-SI≤30×)” and the concentration giving a half-maximal response (EC50) lay within 100 to 1000 nM.

Consider `CNC(=O)COc1cc(C)c(Cc2ccc(O)c(C(C)C)c2)c(Cl)c1` [Compound 3, 2-(3-chloro-4-(4-hydroxy-3-isopropylbenzyl)-5-methylphenoxy)-N-methylacetamide], for which the “brain concentration of the parent acid” value in series [1] was “dramatic increase in brain concentration of the parent acid”.

Consider `Cc1cc(OCC(=O)O)cc(Br)c1Cc1ccc(O)c(C(C)C)c1` [Compound 5, 2-(3-bromo-4-(4-hydroxy-3-isopropylbenzyl)-5-methylphenoxy)acetic acid], for which the EC50 at TRα fell in the range of 10 to 100 nM. Further, on TRβ, the “T3-benchmarked selectivity index (T3-SI)” value is “++ (3×<T3-SI≤30×)” and the concentration giving a half-maximal response (EC50) was in the range of 10 to 100 nM. Moreover, the “functional EC50 (TRβ)” value at TRβ (TR screening) was “equipotent with the di-bromo analog”.

On TRα, `CCc1cc(OCC(=O)O)cc(Cl)c1Cc1ccc(O)c(C(C)C)c1` [Compound 8, 2-(3-chloro-5-ethyl-4-(4-hydroxy-3-isopropylbenzyl)phenoxy)acetic acid] showed an EC50 of 100 to 1000 nM. Besides, at TRβ, the “T3-benchmarked selectivity index (T3-SI)” value is “++ (3×<T3-SI≤30×)” and the EC50 is 10 to 100 nM.

Turning to `Cc1cc(OCC(=O)O)cc(C(F)(F)F)c1Cc1ccc(O)c(C(C)C)c1` [Compound 11, 2-(4-(4-hydroxy-3-isopropylbenzyl)-3-methyl-5-(trifluoromethyl)phenoxy)acetic acid], the half-maximal effective concentration (EC50) at TRα lay within 100 to 1000 nM; at TRβ, 10 to 100 nM. Further, the “T3-benchmarked selectivity index (T3-SI)” value at TRβ was “++ (3×<T3-SI≤30×)”.

As to `CCc1cc(OCC(=O)O)cc(C)c1Cc1ccc(O)c(C(C)C)c1` [Compound 16, 2-(3-ethyl-4-(4-hydroxy-3-isopropylbenzyl)-5-methylphenoxy)acetic acid], the EC50 was 100 to 1000 nM at TRα and 10 to 100 nM on TRβ. At TRβ, the “T3-benchmarked selectivity index (T3-SI)” value is “++ (3×<T3-SI≤30×)”.

For the molecule `CC(C)c1cc(Cc2c(Cl)cc(OCC(=O)O)cc2C(F)(F)F)ccc1O` [Compound 18, 2-(3-chloro-4-(4-hydroxy-3-isopropylbenzyl)-5-(trifluoromethyl)phenoxy)acetic acid], the EC50 at TRα and at TRβ was 10 to 100 nM throughout. The “T3-benchmarked selectivity index (T3-SI)” value at TRβ was “++ (3×<T3-SI≤30×)”.

As to `C=C(C)c1cc(OCC(=O)O)cc(C)c1Cc1ccc(O)c(C(C)C)c1` [Compound 20, 2-(4-(4-hydroxy-3-isopropylbenzyl)-3-methyl-5-(prop-1-en-2-yl)phenoxy)acetic acid], on TRα, the concentration for a half-maximal effect (EC50) is 100 to 1000 nM. Besides, at TRβ, the “T3-benchmarked selectivity index (T3-SI)” value is “++ (3×<T3-SI≤30×)” and the concentration giving a half-maximal response (EC50) was in the range of 10 to 100 nM.

Consider `Cc1cc(OCC(=O)O)cc(C(C)C)c1Cc1ccc(O)c(C(C)C)c1` [Compound 21, 2-(4-(4-hydroxy-3-isopropylbenzyl)-3-isopropyl-5-methylphenoxy)acetic acid], for which, on TRα, the 50% effective concentration (EC50) lay within 10 to 100 nM. At TRβ, the “T3-benchmarked selectivity index (T3-SI)” value was “++ (3×<T3-SI≤30×)” and the EC50 is 10 to 100 nM.

Regarding `C/C=C/c1cc(OCC(=O)O)cc(C)c1Cc1ccc(O)c(C(C)C)c1` [Compound 23, (E)-2-(4-(4-hydroxy-3-isopropylbenzyl)-3-methyl-5-(prop-1-enyl)phenoxy)acetic acid], the half-maximal effective concentration (EC50) was over 1000 nM on TRα and 100 to 1000 nM on TRβ. Moreover, the “T3-benchmarked selectivity index (T3-SI)” value on TRβ is “++ (3×<T3-SI≤30×)”.

`CCCc1cc(OCC(=O)O)cc(C)c1Cc1ccc(O)c(C(C)C)c1` [Compound 25, 2-(4-(4-hydroxy-3-isopropylbenzyl)-3-methyl-5-propylphenoxy)acetic acid] displayed an EC50 on TRα of 100 to 1000 nM. Besides, on TRβ, the “T3-benchmarked selectivity index (T3-SI)” value is “++ (3×<T3-SI≤30×)” and the EC50 fell in the range of 100 to 1000 nM.

`Cc1cc(OCC(=O)O)cc(C2CC2)c1Cc1ccc(O)c(C(C)C)c1` [Compound 27, 2-(3-cyclopropyl-4-(4-hydroxy-3-isopropylbenzyl)-5-methylphenoxy)acetic acid]: the values for the EC50 at TRα and at TRβ were over 1000 nM and 100 to 1000 nM, respectively. Moreover, the “T3-benchmarked selectivity index (T3-SI)” value on TRβ was “++ (3×<T3-SI≤30×)”.

`C=C(C)c1cc(OCC(=O)O)cc(Cl)c1Cc1ccc(O)c(C(C)C)c1` [Compound 30, 2-(3-chloro-4-(4-hydroxy-3-isopropylbenzyl)-5-(prop-1-en-2-yl)phenoxy)acetic acid] came in with an EC50 on TRα of 100 to 1000 nM. Further, on TRβ, the “T3-benchmarked selectivity index (T3-SI)” value is “++ (3×<T3-SI≤30×)” and the half-maximal effective concentration (EC50) lay within 10 to 100 nM.

As to `CC(C)c1cc(Cc2c(Cl)cc(OCC(=O)O)cc2C(C)C)ccc1O` [Compound 31, 2-(3-chloro-4-(4-hydroxy-3-isopropylbenzyl)-5-isopropylphenoxy)acetic acid], the 50% effective concentration (EC50) on TRα was 10 to 100 nM; on TRβ it was under 10 nM. In addition, the “T3-benchmarked selectivity index (T3-SI)” value at TRβ was “++ (3×<T3-SI≤30×)”.
